Results on 9 molecules are retold here after PMC5776677 (Journal of medicinal chemistry, 2016).

pEC50: −log10 of the molar value. Where a name gives a salt, the structure may show the parent alone. A value given as a limit tells only on which side of the number the result lay.

For series [1], the system named is HBV. Briefly: Anti-HBV activity in HepG2. It counts as cell-based.
Series [2] has as its system HIV-1. The experiment in a line: Anti-HIV-1 activity in HIV-infected PBMCs. To be noted: for TI (CC50/EC50), HIV-1: HIV-1, PBMCs.
Series [3] in a line: Aqueous solubility. Type of series: physicochemical.
For series [4], the system named is HIV-1. To be noted: read-out: EC50 against HIV-1; cited from earlier work.
A short description of series [5]: Cytotoxicity in uninfected PBMCs. It counts as cell-based. To be noted: human.
The format of series [6] is physicochemical.

Consider “6-(Dodecyldisulfanyl)hexyl Hydrogen ((((R)-1-(6-Amino-9H-purin-9-yl)propan-2-yl)oxy)methyl)phosphonate [5b]”, for which the “TI (CC50/EC50), HBV” value in series [1] is recorded as >47. For the same molecule, the “TI (CC50/EC50), HIV-1” value in series [2] is recorded as >7000.
In the case of `CCCCCCCCCCCCCCCCSSCCOP(=O)(O)CO[C@H](C)Cn1cnc2c(N)ncnc21` [1b, 2-(hexadecyldisulfanyl)ethyl hydrogen ((((R)-1-(6-amino-9H-purin-9-yl)propan-2-yl)oxy)methyl)phosphonate], the “TI (CC50/EC50), HBV” value in series [1] is > 1200. For the same molecule, in series [3], the aqueous solubility result is given as “poor aqueous solubility”.
For the molecule `CCCCCCCCCCCCCCCCSSCCCCOP(=O)(O)CO[C@H](C)Cn1cnc2c(N)ncnc21` [2b, (R)-4-(hexadecyldisulfanyl)butyl (((1-(6-amino-9H-purin-9-yl)propan-2-yl)oxy)methyl)phosphonate], the “TI (CC50/EC50), HBV” value in series [1] is reported as >200. The aqueous solubility result in series [3] was “poor aqueous solubility”. The “TI (CC50/EC50), HIV-1” value in series [2] was >100000.
In the case of `CCCCCCCCCCCCCCCCSSCc1ccccc1COP(=O)(O)CO[C@H](C)Cn1cnc2c(N)ncnc21` [4b, (R)-2-((hexadecyldisulfanyl)methyl)benzyl (((1-(6-amino-9H-purin-9-yl)propan-2-yl)oxy)methyl)phosphonate], the “TI (CC50/EC50), HIV-1” value in series [2] is given as >31800.
In the case of `CCCCCCCCCCCCCCCCOCCCOP(=O)(O)CO[C@H](C)Cn1cnc2c(N)ncnc21` [CMX-157, Hexadecyloxypropyl-9-R-[2-(Phosphonomethoxy)-Propyl]-Adenine], in series [4], the negative logarithm of the EC50 (pEC50) is 7.70.
Consider `CC(C)OC(=O)OCOP(=O)(CO[C@H](C)Cn1cnc2c(N)ncnc21)OCOC(=O)OC(C)C` [TDF, tenofovir disoproxil fumarate], for which, in series [5], the half-maximal cytotoxic concentration (CC50) worked out at 44 µM.
Turning to `C[C@H](Cn1cnc2c(N)ncnc21)OCP(=O)(O)O` [TFV, tenofovir, reference compound], the “TI (CC50/EC50), HIV-1” value in series [2] was >300.
Regarding `C[C@H](Cn1cnc2c(N)ncnc21)OCP(=O)(O)OCCS` [compound 6, 2-mercaptoethyl hydrogen ((((R)-1-(6-amino-9H-purin-9-yl)propan-2-yl)oxy)methyl)phosphonate], the “TI (CC50/EC50), HBV” value in series [1] is >2. Further, the “stability in glycine/HCl buffer” value in series [6] (pH 2.0, 0.1 M DTT, 37.4 °C) is reported as “no observed decomposition”. For the same molecule, the “stability in PBS” value in series [6] (pH 7.43, TFV appears as new signal) is on record as “Moderate stability”. In addition, in series [6] (pH 9.19, 0.1 M DTT, 37.4 °C), the “decomposition in aqueous carbonate/bicarbonate buffer” value was “significant decomposition”. For the same molecule, the “time to complete consumption of starting material” value in series [6] (pH 10.16) is reported as ≤ 8 min. The “TI (CC50/EC50), HIV-1” value in series [2] was >5.38. In addition, the “fold less active than TFV against HIV-infected PBMCs” value in series [2] (relative to TFV) came out at 58 fold.
For `C[C@H](Cn1cnc2c(N)ncnc21)OCP(=O)(O)OCCCCS` [compound 7, 4-mercaptobutyl hydrogen ((((R)-1-(6-amino-9H-purin-9-yl)propan-2-yl)oxy)methyl)phosphonate], in series [1], the “TI (CC50/EC50), HBV” value is given as > 1. In addition, in series [6] (all tested pH values, several hours at 37 °C), the “stability in various aqueous buffers” value is “no detectable decomposition”.
